From patent US11332459B2 (TEIJIN PHARMA LIMITED, priority 2017, dated 2022)
Structures can show the parent of a compound that is named as a salt.

These compounds were tested against T1, human TRPC6 (Homo sapiens, UniProt Q9Y210) (assay: TRPC6 calcium flux assay (FLIPR, OAG-stimulated calcium influx)). Settings: HEK293 cells stably transfected with human TRPC6, read-out: hTRPC6 Potency.
T1 construct: expressed in transfected cells
T1 sequence (Q9Y210 1-931): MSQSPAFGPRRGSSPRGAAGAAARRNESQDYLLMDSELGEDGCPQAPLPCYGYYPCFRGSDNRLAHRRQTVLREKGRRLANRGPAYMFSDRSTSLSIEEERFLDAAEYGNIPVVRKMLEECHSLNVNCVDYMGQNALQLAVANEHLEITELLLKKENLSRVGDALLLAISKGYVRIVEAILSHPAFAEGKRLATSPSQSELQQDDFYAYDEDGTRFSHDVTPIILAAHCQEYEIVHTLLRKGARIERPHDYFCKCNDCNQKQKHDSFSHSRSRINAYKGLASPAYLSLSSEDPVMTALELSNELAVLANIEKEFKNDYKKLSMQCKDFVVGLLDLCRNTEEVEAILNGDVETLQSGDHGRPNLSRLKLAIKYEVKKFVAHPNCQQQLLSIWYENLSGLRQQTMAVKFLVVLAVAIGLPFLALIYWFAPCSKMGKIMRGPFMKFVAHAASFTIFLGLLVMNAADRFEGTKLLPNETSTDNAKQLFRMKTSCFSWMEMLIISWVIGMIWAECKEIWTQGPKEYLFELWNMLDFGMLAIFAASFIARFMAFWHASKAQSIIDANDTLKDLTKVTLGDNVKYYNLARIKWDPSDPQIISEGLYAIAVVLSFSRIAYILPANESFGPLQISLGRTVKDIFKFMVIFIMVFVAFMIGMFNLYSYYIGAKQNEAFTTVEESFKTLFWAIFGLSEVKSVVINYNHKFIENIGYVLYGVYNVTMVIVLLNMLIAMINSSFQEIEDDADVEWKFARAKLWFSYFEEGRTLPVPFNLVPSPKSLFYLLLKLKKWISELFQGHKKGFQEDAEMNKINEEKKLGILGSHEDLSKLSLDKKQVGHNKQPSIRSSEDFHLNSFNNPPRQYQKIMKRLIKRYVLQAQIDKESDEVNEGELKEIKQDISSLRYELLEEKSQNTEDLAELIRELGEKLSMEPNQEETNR
Assay type: cell-based
Summary of the method: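 HEK293 cells stably expressing human TRPC6, loaded with calcium dye 90–120 min at RT, then given compound for 25 min before OAG (50 uM final, 0.5% DMSO) in HEPES buffer pH 7.2 with 2 mM CaCl2. Background-subtracted FLIPR peak over 180 s normalized to OAG vs buffer; IC50 from dose plot.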

| IC50 [nM] | Structure (SMILES) |
| --- | --- |
| 2.16 | N#Cc1ccc2c(c1)CC[C@@H]2n1c(N2CC[C@@H](F)[C@H](N)C2)nc2ccccc21 [Example 232, (S)-1-(2-((3R,4R)-3-amino-4-fluoropiperidin-1-yl)-1H-benzo[d]imidazol-1-yl)-2,3-dihydro-1H-indene-5-carbonitrile hydrochloride] |
| 1.47 | N#Cc1cnc(Cn2c(N3CCC(F)(F)[C@H](N)C3)nc3ccc(Cl)cc32)cn1 [Example 233, (R)-5-((2-(3-amino-4,4-difluoropiperidin-1-yl)-6-chloro-1H-benzo[d]imidazol-1-yl)methyl)pyrazine-2-carbonitrile] |
| 26.9 | N#Cc1cnc(Cn2c(N3CCC(F)(F)[C@H](N)C3)nc3cc(Cl)ccc32)cn1 [Example 234, (R)-5-((2-(3-amino-4,4-difluoropiperidin-1-yl)-5-chloro-1H-benzo[d]imidazol-1-yl)methyl)pyrazine-2-carbonitrile] |
| 150 | CC(C)NC(=O)Cn1c(N2CC[C@@H](F)[C@H](N)C2)nc2cc(F)c(F)cc21 [Example 235, 2-(2-((3R,4R)-3-amino-4-fluoropiperidin-1-yl)-5,6-difluoro-1H-benzo[d]imidazol-1-yl)-N-isopropylacetamide] |
| 23.8 | N[C@@H]1CN(c2nc3cc(F)c(F)cc3n2CC(=O)N2CCC2)CC[C@H]1F [Example 236, 2-(2-((3R,4R)-3-amino-4-fluoropiperidin-1-yl)-5,6-difluoro-1H-benzo[d]imidazol-1-yl)-1-(azetidin-1-yl)ethanone] |
| > 3750 | COc1cnc(Cn2c(N3CC[C@@H](F)[C@H](N)C3)nc3cc(C#N)ccc32)nc1 [Example 241, 2-((3R,4R)-3-amino-4-fluoropiperidin-1-yl)-1-((5-methoxypyrimidin-2-yl)methyl)-1H-benzo[d]imidazole-5-carbonitrile hydrochloride] |
| 73.5 | COc1cnc(Cn2c(N3CC[C@@H](F)[C@H](N)C3)nc3ccc(C#N)cc32)nc1 [Example 242, 2-((3R,4R)-3-amino-4-fluoropiperidin-1-yl)-1-((5-methoxypyrimidin-2-yl)methyl)-1H-benzo[d]imidazole-6-carbonitrile hydrochloride] |
| 1970 | N#Cc1ccc2nc(N3CC[C@@H](F)[C@H](N)C3)n(Cc3ccc(C(F)(F)F)nc3)c2c1 [Example 243, 2-((3R,4R)-3-amino-4-fluoropiperidin-1-yl)-1-((6-(trifluoromethyl)pyridin-3-yl)methyl)-1H-benzo[d]imidazole-6-carbonitrile hydrochloride] |
| > 3750 | N#Cc1ccc2c(c1)nc(N1CC[C@@H](F)[C@H](N)C1)n2Cc1ccc(C(F)(F)F)nc1 [Example 244, 2-((3R,4R)-3-amino-4-fluoropiperidin-1-yl)-1-((6-(trifluoromethyl)pyridin-3-yl)methyl)-1H-benzo[d]imidazole-5-carbonitrile hydrochloride] |
| 62.5 | CN1CC[C@H](n2c(N3CC[C@@H](F)[C@H](N)C3)nc3cc(F)c(F)cc32)C1=O [Example 245, (S)-3-(2-((3R,4R)-3-amino-4-fluoropiperidin-1-yl)-5,6-difluoro-1H-benzo[d]imidazol-1-yl)-1-methylpyrrolidin-2-one] |
| 2920 | CN1CC[C@@H](n2c(N3CC[C@@H](F)[C@H](N)C3)nc3cc(F)c(F)cc32)C1=O [Example 246, (R)-3-(2-((3R,4R)-3-amino-4-fluoropiperidin-1-yl)-5,6-difluoro-1H-benzo[d]imidazol-1-yl)-1-methylpyrrolidin-2-one] |
| 75.4 | N[C@@H]1CN(c2nc3cc(F)c(F)cc3n2[C@H]2CCN(c3ccc(Cl)cc3)C2=O)CC[C@H]1F [Example 247, (S)-3-(2-((3R,4R)-3-amino-4-fluoropiperidin-1-yl)-5,6-difluoro-1H-benzo[d]imidazol-1-yl)-1-(4-chlorophenyl)pyrrolidin-2-one] |
| 5.07 | N[C@@H]1CN(c2nc3cc(F)c(F)cc3n2[C@@H]2CCN(c3ccc(Cl)cc3)C2=O)CC[C@H]1F [Example 248, (R)-3-(2-((3R,4R)-3-amino-4-fluoropiperidin-1-yl)-5,6-difluoro-1H-benzo[d]imidazol-1-yl)-1-(4-chlorophenyl)pyrrolidin-2-one] |
| 7.65 | N#Cc1ccc2nc(N3CC[C@@H](F)[C@H](N)C3)n(Cc3cnc(C#N)cn3)c2c1 [Example 249, 2-((3R,4R)-3-amino-4-fluoro-1-piperidinyl)-1-((5-cyano-2-pyrazinyl)methyl)-1H-benzimidazole-6-carbonitrile] |
| 78.5 | N#Cc1ccc2c(c1)nc(N1CC[C@@H](F)[C@H](N)C1)n2Cc1cnc(C#N)cn1 [Example 250, 2-((3R,4R)-3-amino-4-fluoro-1-piperidinyl)-1-((5-cyano-2-pyrazinyl)methyl)-1H-benzimidazole-5-carbonitrile] |
| 17.2 | N#Cc1cnc(Cn2c(N3CC[C@@H](F)[C@H](N)C3)nc3c(F)cc(F)cc32)cn1 [Example 251, 5-((2-((3R,4R)-3-amino-4-fluoro-1-piperidinyl)-4,6-difluoro-1H-benzimidazol-1-yl)methyl)-2-pyrazinecarbonitrile] |
| 8.76 | N#Cc1cnc(Cn2c(N3CC[C@@H](F)[C@H](N)C3)nc3cc(F)cc(F)c32)cn1 [Example 252, 5-((2-((3R,4R)-3-amino-4-fluoro-1-piperidinyl)-5,7-difluoro-1H-benzimidazol-1-yl)methyl)-2-pyrazinecarbonitrile] |
| 406 | CN[C@H]1CCCN(c2nc3ccccc3n2Cc2ccc(F)cn2)C1 [Example 253, (3S)-1-(1-((5-fluoro-2-pyridinyl)methyl)-1H-benzimidazol-2-yl)-N-methyl-3-piperidinamine] |
| 73.9 | CN[C@H]1CCCN(c2nc3ccccc3n2Cc2ccc(Cl)cn2)C1 [Example 254, (3S)-1-(1-((5-chloro-2-pyridinyl)methyl)-1H-benzimidazol-2-yl)-N-methyl-3-piperidinamine] |
| 101 | CN[C@H]1CCCN(c2nc3ccccc3n2[C@H](C)c2ccc(C#N)cn2)C1 [Example 255, 6-((1R)-1-(2-((3S)-3-(methylamino)-1-piperidinyl)-1H-benzimidazol-1-yl)ethyl)-3-pyridinecarbonitrile] |
| 19.4 | CN[C@H]1CCCN(c2nc3ccccc3n2[C@@H](C)c2ccc(C#N)cn2)C1 [Example 256, 6-((1S)-1-(2-((3S)-3-(methylamino)-1-piperidinyl)-1H-benzimidazol-1-yl)ethyl)-3-pyridinecarbonitrile] |
| 52.4 | N[C@@H]1CN(c2nc3cc(F)cc(F)c3n2Cc2ncc(Cl)cn2)CC[C@H]1F [Example 257, (3R,4R)-1-(1-((5-chloro-2-pyrimidinyl)methyl)-5,7-difluoro-1H-benzimidazol-2-yl)-4-fluoro-3-piperidinamine] |
| 0.288 | N[C@@H]1CN(c2nc3c(F)cc(F)cc3n2Cc2ncc(Cl)cn2)CC[C@H]1F [Example 258, (3R,4R)-1-(1-((5-chloro-2-pyrimidinyl)methyl)-4,6-difluoro-1H-benzimidazol-2-yl)-4-fluoro-3-piperidinamine] |
| 1430 | Cn1ncc2c(Cn3c(N4CC[C@@H](F)[C@H](N)C4)nc4cc(F)c(F)cc43)cccc21 [Example 259, (3R,4R)-1-(5,6-difluoro-1-((1-methyl-1H-indazol-4-yl)methyl)-1H-benzimidazol-2-yl)-4-fluoro-3-piperidinamine] |
| 376 | N[C@@H]1CN(c2nc3cc(F)c(F)cc3n2Cc2cccc3ncccc23)CC[C@H]1F [Example 260, (3R,4R)-1-(5,6-difluoro-1-(5-quinolinylmethyl)-1H-benzimidazol-2-yl)-4-fluoro-3-piperidinamine] |
| > 3750 | C[C@H](c1cccc2cccnc12)n1c(N2CC[C@@H](F)[C@H](N)C2)nc2cc(F)c(F)cc21 [Example 261, (3R,4R)-1-(5,6-difluoro-1-((1R)-1-(8-quinolinyl)ethyl)-1H-benzimidazol-2-yl)-4-fluoro-3-piperidinamine] |
| 280 | C[C@@H](c1cccc2cccnc12)n1c(N2CC[C@@H](F)[C@H](N)C2)nc2cc(F)c(F)cc21 [Example 262, (3R,4R)-1-(5,6-difluoro-1-((1S)-1-(8-quinolinyl)ethyl)-1H-benzimidazol-2-yl)-4-fluoro-3-piperidinamine] |
| 765 | N[C@@H]1CN(c2nc3cc(F)c(F)cc3n2Cc2cc(-c3cccc(Cl)c3)no2)CC[C@H]1F [Example 263, (3R,4R)-1-(1-((3-(3-chlorophenyl)-1,2-oxazol-5-yl)methyl)-5,6-difluoro-1H-benzimidazol-2-yl)-4-fluoro-3-piperidinamine] |
